Results reported in patent US7655799B2, “2{[2-(substituted amino)ethyl]sulfonyl}ethyl N,N,N',N'-tetrakis(2-chloroethyl)phosphorodiamidates” (Telik, Inc., priority 2006, dated 2010).

Tests used:
[1] = system: DLD-1 (colorectal adenocarcinoma); assay: Cytotoxicity/Growth Inhibition Assay (CellTiter-Glo), DLD-1; format: cell-based; settings: Homo sapiens, DLD-1, 96 h; hydrochloride salts; 4 days culture
Protocol: (§1) The human cancer cell lines DLD-1 (colorectal adenocarcinoma), LNCaP (prostate carcinoma), and MIA PaCa-2 (pancreatic carcinoma) were obtained from the American Type Culture Collection, Manassas, Va., U.S.A., and MX-1 (breast carcinoma) from the National Cancer Institute, Bethesda, Md., U.S.A. The CellTiter-Glo assay kit was obtained from Promega Corporation, Madison, Wis., U.S.A. All products were used in accordance with manufacturer's directions. All assays were conducted in triplicate wells, with dimethyl sulfoxide (DMSO) solvent control. The extent of cell growth was expressed as a percentage of the signal from the solvent control wells.
(§2) Log-phase cells were trypsinized, collected by centrifugation, and resuspended in a small volume of fresh medium, and the density of viable cells was determined following Trypan Blue staining. Cells were diluted in fresh media (3×10^3 cells/mL for DLD-1, MIA PaCa-2, and MX-1, and 6×10^3 cells/mL for LNCaP), and added at 150 μL/well to 96-well plates, and incubated for several hours to allow attachment in the case of adherent cells. Compounds 1A to 5A, as their hydrochloride salts, dissolved in DMSO, was diluted 50-fold with fresh medium and the diluted solutions immediately added at 50 μL/well to the cell suspensions, giving final compound concentrations between 0.1 μM and 200 μM and a final DMSO concentration of 0.5%. The cells were cultured for approximately three doubling times (3 days for MIA PaCa-2 and MX-1, and 4 days for DLD-1 and LNCaP). The cells were then collected by centrifugation, and 100 μL of the culture supernatant was replaced by the CellTiter-Glo reagent. After incubation for 10 minutes at room temperature, and the plate was read with a luminometer. A number of compounds of formula A were tested in this assay and found to be active.

[2] = system: LNCaP (prostate carcinoma); assay: Cytotoxicity/Growth Inhibition Assay (CellTiter-Glo), LNCaP; format: cell-based; settings: Homo sapiens, 96 h, hydrochloride salts, 4 days culture
Protocol: as §1, §2

[3] = system: MIA PaCa-2 (pancreatic carcinoma); assay: Cytotoxicity/Growth Inhibition Assay (CellTiter-Glo), MIA PaCa-2; format: cell-based; settings: Homo sapiens, MIA PaCa-2, 72 h; hydrochloride salts; 3 days culture
Protocol: as §1, §2

[4] = system: MX-1 (breast carcinoma); assay: Cytotoxicity/Growth Inhibition Assay (CellTiter-Glo), MX-1; format: cell-based; settings: Homo sapiens, 72 h; hydrochloride salts; 3 days culture
Protocol: as §1, §2

[5] = system: MX-1 tumor; assay: MX-1 Xenograft Assay, Intraperitoneal Administration; format: in vivo, athymic nu/nu mice; settings: hydrochloride salts in aqueous 5% dextrose
Protocol: (§3) Female athymic nu/nu mice (Harlan, Indianapolis, Ind., U.S.A. or similar vendor), 6-8 weeks old (approximately 20 g), were implanted in the mammary fat pad of the right fore flank with 20-30 mg pieces of MX-1 tumor harvested from similar nu/nu mice that had previously been implanted with the MX-1 tumor. […] Groups of mice were treated with compounds 2A and 3A at 50 mg/Kg and compounds 1A, 2A, 3A, and 5A at 100 mg/Kg, in all cases as the hydrochloride salts dissolved in aqueous 5% dextrose, by intraperitoneal injection once/day for 5 consecutive days, with vehicle control. Tumor mass, estimated from volume, was measured twice weekly; and tumor growth inhibition was measured when the average tumor mass in the control group first exceeded 2000 mg. All compounds were active in this assay, with tumor growth inhibition compared to vehicle of 70% and 23% for compounds 2A and 3A, respectively, at 50 mg/Kg, and 100%, 100%, 100%, and 91% for compounds 1A, 2A, 3A, and 5A, respectively, at 100 mg/Kg.

[6] = Solubility in water of salts; settings: for solubility: water, solubility in water
[7] = system: MX-1 tumor; assay: MX-1 Xenograft Assay, Oral Administration; format: in vivo, athymic nu/nu mice; settings: hydrochloride salt in water
Protocol: as §3
A study similar to that described in In vivo Example 1 was performed using oral administration of compounds 2A and 3A. Groups of mice were treated with compound 2A at 100, 150, 200, or 300 mg/Kg, or compound 3A at 150 mg/Kg, in each case as the hydrochloride salts dissolved in water, by gavage once/day for 5 consecutive days, with vehicle control. Both compounds were active in this assay and compound 2A caused dose-dependent tumor inhibition.

[8] = system: MX-1 tumor; assay: MX-1 Xenograft Assay, Intravenous Administration; format: in vivo, athymic nu/nu mice; settings: hydrochloride salt in aqueous 5% dextrose
Protocol: as §3
A study similar to that described in In vivo Example 1 was performed using intravenous administration of compound 2A. A group of mice was treated with the compound, as the hydrochloride salt dissolved in aqueous 5% dextrose, at 40 and 80 mg/Kg by tail vein injection once/day for 5 consecutive days, with vehicle control.

[9] = system: MIA PaCa-2 tumor; assay: MiaPaCa-2 Xenograft Assay, Intraperitoneal Administration; format: in vivo, athymic nu/nu mice; settings: 100 mg/Kg intraperitoneal once/day for 7 days; for tumor growth inhibition compared to vehicle: hydrochloride salts in aqueous 5% dextrose
Protocol: Male athymic nu/nu mice, 6-8 weeks old (approximately 20 g), were implanted subcutaneously in the right fore flank with 20-30 mg pieces of MIA PaCa-2 tumor harvested from similar nu/nu mice that had previously been implanted with the MIA PaCa-2 tumor. […] A group of mice was treated with compounds 2A, 3A, and 5A, in all cases as the hydrochloride salts dissolved in aqueous 5% dextrose, at 100 mg/Kg by intraperitoneal injection once/day for 7 consecutive days, with vehicle control.

[10] = system: human cancer cell lines DLD-1, LNCaP, MIA PaCa-2, MX-1; assay: Cytotoxicity/Growth Inhibition Assay, all cell lines, comparison with canfosfamide; format: cell-based; settings: all assays (DLD-1, LNCaP, MIA PaCa-2, MX-1)
Protocol: as §1
Log-phase cells were trypsinized, collected by centrifugation, and resuspended in a small volume of fresh medium, and the density of viable cells was determined following Trypan Blue staining. Cells were diluted in fresh media (3×10^3 cells/mL for DLD-1, MIA PaCa-2, and MX-1, and 6×10^3 cells/mL for LNCaP), and added at 150 μL/well to 96-well plates, and incubated for several hours to allow attachment in the case of adherent cells. […] After incubation for 10 minutes at room temperature, and the plate was read with a luminometer. […]

[11] = 100 mg/Kg intraperitoneal once/day for 5 days
[12] = 50 mg/Kg intraperitoneal once/day for 5 days

| SMILES | IC50 [1] | IC50 [2] | IC50 [3] | IC50 [4] | tumor growth inhibition compared to vehicle [5, 11] | solubility in water (in words) ([6]; citrate salt) | solubility in water (in words) ([6]; hydrochloride salt) | tumor growth inhibition compared to vehicle [5, 12] | inhibition of tumor growth compared to vehicle ([7]; 100 mg/Kg by gavage once/day for 5 days) | inhibition of tumor growth compared to vehicle ([7]; 300 mg/Kg by gavage once/day for 5 days) | inhibition of tumor growth compared to vehicle ([8]; 40 mg/Kg tail vein injection once/day for 5 days) | inhibition of tumor growth compared to vehicle ([8]; 80 mg/Kg tail vein injection once/day for 5 days) | body weight effect [9] | tumor growth inhibition compared to vehicle [9] | potency relative to canfosfamide [10] | solubility in water (in words) ([6]; tartrate salt) | solubility ([6]; citrate salt) | solubility ([6]; hydrochloride salt) | inhibition of tumor growth compared to vehicle ([7]; 150 mg/Kg by gavage once/day for 5 days) |
| --- | --- | --- | --- | --- | --- | --- | --- | --- | --- | --- | --- | --- | --- | --- | --- | --- | --- | --- | --- |
| CN(C)CCS(=O)(=O)CCOP(=O)(N(CCCl)CCCl)N(CCCl)CCCl [Compound 1A, 2-{[2-(dimethylamino)ethyl]sulfonyl}ethyl N,N,N′,N′-tetrakis(2-chloroethyl)phosphorodiamidate] | 11 µM | 130 µM | 39 µM | 43 µM | 100% | somewhat more soluble than the citrate salt of compound 2A | highly soluble in water |  |  |  |  |  |  |  |  |  |  |  |  |
| CCN(CC)CCS(=O)(=O)CCOP(=O)(N(CCCl)CCCl)N(CCCl)CCCl [Compound 2A, 2-{[2-(diethylamino)ethyl]sulfonyl}ethyl N,N,N′,N′-tetrakis(2-chloroethyl)phosphorodiamidate] | 7.9 µM | 75 µM | 16 µM | 16 µM | 100% |  |  | 70% | 92% | 100% | 53% | 99% | some body weight loss | 89% | more potent | slightly more soluble than the citrate salt | ~19 mg/mL | ≥ 50 mg/mL |  |
| CC(C)N(CCS(=O)(=O)CCOP(=O)(N(CCCl)CCCl)N(CCCl)CCCl)C(C)C [Compound 3A, 2-{[2-(diisopropylamino)ethyl]sulfonyl}ethyl N,N,N′,N′-tetrakis(2-chloroethyl)phosphorodiamidate] | 5 µM | 16 µM | 6.8 µM | 5 µM | 100% |  |  | 23% |  |  |  |  | some body weight loss | 89% | more potent |  |  |  | 98% |
| O=P(OCCS(=O)(=O)CCN1CCCC1)(N(CCCl)CCCl)N(CCCl)CCCl [Compound 4A, 2-{[2-(pyrrolidin-1-yl)ethyl]sulfonyl}ethyl N,N,N′,N′-tetrakis(2-chloroethyl)phosphorodiamidate] | 8.6 µM | 100 µM | 29 µM | 26 µM |  |  |  |  |  |  |  |  |  |  |  |  |  |  |  |
| O=P(OCCS(=O)(=O)CCN1CCCCC1)(N(CCCl)CCCl)N(CCCl)CCCl [Compound 5A, 2-{[2-(piperidin-1-yl)ethyl]sulfonyl}ethyl N,N,N′,N′-tetrakis(2-chloroethyl)phosphorodiamidate] | 13 µM | 140 µM | 36 µM | 41 µM | 91% |  |  |  |  |  |  |  | some body weight loss | 62% |  |  |  |  |  |
